For eight compounds, GI50 and TGI results are on record in PubChem BioAssay (NCI).

The structures appear in SMILES notation.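 Following 48 hours of exposure in 96-well plates, responses at five concentrations were used to interpolate endpoints linearly. At the GI50, growth is halved. At the TGI there is no net growth.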

Test systems include COLO 205 colon; HCC-2998 colon; MDA-MB-231 breast; IGROV1 ovarian; NCI-H522 lung; TK-10 renal; SF-295 CNS; U251 CNS; SK-OV-3 ovarian; MDA-MB-435.
Holding throughout (assay): NCI-60 cell line screen, 48 h

`C[C@H](c1ccccc1)N(CCC(=O)O)C(=O)CCN(C(=O)CCN(C(=O)CCN[C@H](C)c1ccccc1)[C@H](C)c1ccccc1)[C@H](C)c1ccccc1`: the GI50 in the assay on COLO 205 colon, in the assay on HCC-2998 colon, in the assay with MDA-MB-231 breast, with IGROV1 ovarian, in the assay on NCI-H522 lung and in the assay with TK-10 renal was above 100 µM in each case. Further, the GI50 in the assay with SF-295 CNS, in the assay with U251 CNS, in the assay on SK-OV-3 ovarian and with MDA-MB-435 was above 100 µM throughout. The TGI in the assay on COLO 205 colon, with HCC-2998 colon, in the assay on MDA-MB-231 breast, in the assay on IGROV1 ovarian, in the assay on NCI-H522 lung and in the assay with TK-10 renal was above 100 µM in each case. Also, the TGI in the assay with SF-295 CNS, with U251 CNS, in the assay on SK-OV-3 ovarian and with MDA-MB-435 was above 100 µM throughout.
Regarding `COc1ccc2nc3cc(Cl)ccc3c(Nc3cc(C(C)C)c(O)cc3C)c2c1`, the GI50 with COLO 205 colon was 1.81 µM; in the assay on HCC-2998 colon it was 2.22 µM; in the assay on MDA-MB-231 breast, 1.82 µM; with IGROV1 ovarian, 1.55 µM; in the assay on NCI-H522 lung, 1.79 µM; in the assay on TK-10 renal, 1.75 µM. In addition, the GI50 in the assay with SF-295 CNS was 1.36 µM; with U251 CNS, 1.79 µM; in the assay with SK-OV-3 ovarian, 2.39 µM; in the assay with MDA-MB-435, 1.8 µM. Further, the TGI with COLO 205 colon came to 3.64 µM; in the assay on HCC-2998 colon it was 5.58 µM; in the assay on MDA-MB-231 breast it was 3.97 µM; with IGROV1 ovarian, 3.35 µM; in the assay with NCI-H522 lung, 3.65 µM; in the assay on TK-10 renal, 6.65 µM. Besides, the TGI in the assay on SF-295 CNS amounted to 3.01 µM; with U251 CNS it was 3.53 µM; in the assay with SK-OV-3 ovarian, 6.88 µM; with MDA-MB-435, 4.48 µM.
In the case of `O=C(/C=C/c1ccccc1)OCC1=C[C@@H](O)[C@@H]2C=CO[C@@H](OC3OC(CO)C(O)C(O)C3O)[C@H]12` (some centres undefined), the TGI with COLO 205 colon, with HCC-2998 colon, in the assay on MDA-MB-231 breast, in the assay on IGROV1 ovarian, in the assay on NCI-H522 lung and in the assay with TK-10 renal was above 100 µM in each case. In addition, the TGI with SF-295 CNS, in the assay on U251 CNS, with SK-OV-3 ovarian and with MDA-MB-435 was above 100 µM throughout.
On to `COc1cc(-c2nn(-c3cccc(NC(=O)CCN4CCN(C)CC4)c3)cc2-c2ccncc2)ccc1Cl`, for which the GI50 in the assay with COLO 205 colon was 1.09 µM; in the assay on HCC-2998 colon, 1.86 µM; in the assay on MDA-MB-231 breast, 1.69 µM; in the assay with IGROV1 ovarian, 2.37 µM; in the assay with NCI-H522 lung it was 0.283 µM; in the assay with TK-10 renal, 3.8 µM. Further, the GI50 is 0.968 µM with SF-295 CNS, 1.29 µM in the assay with U251 CNS, 1.81 µM in the assay on SK-OV-3 ovarian and 0.283 µM in the assay on MDA-MB-435. The TGI is 2.47 µM in the assay on COLO 205 colon; 3.79 µM in the assay with HCC-2998 colon; 3.66 µM in the assay with MDA-MB-231 breast; 15.6 µM in the assay on IGROV1 ovarian; 1.08 µM with NCI-H522 lung; 14.6 µM with TK-10 renal. In addition, the TGI in the assay with SF-295 CNS amounted to 2.75 µM; in the assay on U251 CNS it was 3.4 µM; with SK-OV-3 ovarian it was 7.34 µM; in the assay on MDA-MB-435, 1.13 µM.
As for `O=c1c2cc(O)c(O)cc2oc2cc(O)c(C3OC(CO)C(O)C(O)C3O)c(O)c12` (centres undefined), the TGI in the assay with COLO 205 colon, in the assay with HCC-2998 colon, in the assay on MDA-MB-231 breast, with IGROV1 ovarian, in the assay with NCI-H522 lung and in the assay with TK-10 renal was above 100 µM in each case. The TGI in the assay on SF-295 CNS, with U251 CNS, with SK-OV-3 ovarian and with MDA-MB-435 was above 100 µM throughout.
On to `COC1=CC2CCN3Cc4cc5c(cc4C(C1O)C23)OCC5` (centres undefined), for which the GI50 was 0.513 µM in the assay with COLO 205 colon; 1.09 µM with HCC-2998 colon; 2.86 µM in the assay with MDA-MB-231 breast; 4.59 µM with IGROV1 ovarian; 28 µM in the assay on NCI-H522 lung; 5.53 µM with TK-10 renal. In addition, the GI50 in the assay on SF-295 CNS was 3.88 µM; with U251 CNS, 1.53 µM; with SK-OV-3 ovarian, 1.84 µM; in the assay on MDA-MB-435 it was 3.44 µM. Besides, the TGI in the assay with COLO 205 colon is 1.92 µM; in the assay on HCC-2998 colon it was 7.37 µM; with MDA-MB-231 breast, 22.6 µM; in the assay with IGROV1 ovarian, above 24.8 µM; in the assay with NCI-H522 lung it was above 100 µM; with TK-10 renal, 41.9 µM. Moreover, the TGI was 24.4 µM in the assay with SF-295 CNS, 11.4 µM in the assay with U251 CNS, above 100 µM in the assay on SK-OV-3 ovarian and 21.3 µM in the assay on MDA-MB-435.
On to `C#Cc1ccc(-n2c(/C=C/c3ccc4ccccc4c3)nc3ncccc3c2=O)cc1`, for which the GI50 with HCC-2998 colon was 2.32 µM; with MDA-MB-231 breast it was 3.74 µM; in the assay with IGROV1 ovarian it was 2.92 µM; with NCI-H522 lung, 5.11 µM; in the assay with TK-10 renal it was 4.04 µM; in the assay with U251 CNS, 3.69 µM. For the same compound, the results for the GI50 with SK-OV-3 ovarian and in the assay with MDA-MB-435 were 7.55 µM and 2.06 µM, respectively. Also, the TGI is 5.04 µM in the assay with HCC-2998 colon; above 100 µM in the assay on MDA-MB-231 breast; above 100 µM in the assay on IGROV1 ovarian; above 100 µM in the assay with NCI-H522 lung; above 100 µM in the assay with TK-10 renal; above 100 µM in the assay with U251 CNS. Besides, the TGI in the assay with SK-OV-3 ovarian and with MDA-MB-435 was above 100 µM in each case.
In the case of `Cc1cn2c(/C=C3/C(=O)Nc4ccc(Cl)cc43)c(C)nc2s1`, the GI50 was below 0.024 µM in the assay on HCC-2998 colon; 0.678 µM in the assay with MDA-MB-231 breast; 2.5 µM in the assay with IGROV1 ovarian; 1.01 µM with NCI-H522 lung; 2.42 µM in the assay with TK-10 renal; 0.871 µM in the assay with SF-295 CNS. In addition, the GI50 in the assay on U251 CNS was below 0.0235 µM; in the assay with SK-OV-3 ovarian, 0.384 µM; with MDA-MB-435 it was 2.12 µM. Further, the TGI in the assay with HCC-2998 colon was 1.04 µM; in the assay with MDA-MB-231 breast, 24.8 µM; in the assay with IGROV1 ovarian, 99.4 µM; with NCI-H522 lung, above 100 µM; in the assay on TK-10 renal, 17.5 µM; with SF-295 CNS, 2.65 µM. Also, the TGI in the assay on U251 CNS turned out to be 28.7 µM; in the assay on SK-OV-3 ovarian, 24.2 µM; in the assay on MDA-MB-435 it was 5.41 µM.
